In patent US20200393473A1, “EZETIMIBE METABOLITE AS A NON-INVASIVE BIOMARKER FOR NON-ALCOHOLIC STEATOHEPATITIS (NASH)” (ARIZONA BOARD OF REGENTS ON BEHALF OF THE UNIVERSITY OF …, priority 2018, published 2020):

How the values were obtained:
[1] = Disposition of EZE and EZE-Gluc in plasma, bile and urine of control and MCD (NASH) rats, LC-MS/MS; assay type: in vivo, rat; details: NASH animal model (MCD rats) vs control, oral EZE
Protocol: Ezetimibe was orally administered to control and MCD rats. Blood and bile were collected and EZE and ZE-Guc were measured by LC-MS/MS. […] The solid and open arrows indicate where NASH caused an increase and decrease, respectively, in the amount of compound in the biological fluid indicated.
Ezetimibe was intravenously administered to control and MCD rats. Blood and bile were collected and EZE and EZE-Guc were measured by LC-MS/MS. […] The solid arrows indicate where NASH caused an increase in the amount of compound in the biological fluid indicated.

[2] = EZE-Gluc in plasma and urine in NASH compared with healthy or steatotic livers; assay type: in vivo; details: NASH vs healthy or steatotic livers
Protocol: Furthermore, the inventive technical features of the present invention contributed to a surprising result. A surprising and unexpected result can occur when patients are administered EZE.

[3] = normal healthy individuals, 10 mg oral dose of EZE; cited from earlier work

biliary elimination [1]	plasma retention [1]	increase in plasma and urine [2]	SMILES	average peak blood concentration [3]
Decreased Biliary Elimination	Increased Plasma Retention	≤ 100 fold	O=C(O)[C@H]1O[C@@H](Oc2ccc([C@@H]3[C@@H](CC[C@H](O)c4ccc(F)cc4)C(=O)N3c3ccc(F)cc3)cc2)[C@H](O)[C@@H](O)[C@@H]1O [EZE-Gluc, ezetimibe-glucuronide]	92 ng/mL
–	–	–	O=C1[C@H](CC[C@H](O)c2ccc(F)cc2)[C@@H](c2ccc(O)cc2)N1c1ccc(F)cc1 [EZE, ezetimibe]	4.5 ng/mL
